Experimental data published in patent US8178077B2, “Drug development target protein and target gene, and method of screening” (Reverse Proteomics Research Institute Co., Ltd., priority 2004, dated 2012).

Columns and labels:
[1] = biological target: T1, FLJ20589 clone-derived protein (human hippocalcin-like protein 1, VILIP-3) (Homo sapiens, UniProt P37235); assay: SEC/MS interaction analysis (size exclusion spin column and mass analysis) with FLJ20589 clone-derived protein; format: binding
T1 construct: A human full-length cDNA clone was expressed as a protein with an N-terminal His tag; His tag (N); made in house; host or cells: Escherichia coli BL21star(DE3)pLysS (pDEST17 Gateway expression plasmid)

[2] = biological target: T2, FLJ39196 clone-derived protein (human neurocalcin δ) (Homo sapiens, UniProt P61601); assay: SEC/MS interaction analysis (size exclusion spin column and mass analysis) with FLJ39196 clone-derived protein; format: binding
T2 construct: A human full-length cDNA clone was expressed as a protein with an N-terminal His tag; His tag (N); made in house; host or cells: Escherichia coli BL21star(DE3)pLysS (pDEST17 Gateway expression plasmid)
How it was run: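 Unmodified, non-immobilized protein was mixed with compound and separated by size exclusion on 384-well Unifilter 100 spin columns packed with 10 μL Bio-Gel P6. The protein-fraction filtrate was collected in 50% acetonitrile, deproteinized, concentrated, redissolved in 10 μL of 50% methanol, and 2 μL was injected for ESI mass analysis of compound spectral intensity.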

[3] = protein 0 μM (protein-free reference), compound 1 μM
[4] = protein 0 μM (protein-free reference), compound 10 μM
[5] = protein 0 μM (protein-free reference), compound 100 μM
[6] = protein 0 μM (protein-free reference), compound 250 μM
[7] = protein 23.75 μM, compound 1 μM
[8] = protein 23.75 μM, compound 10 μM
[9] = protein 23.75 μM, compound 100 μM
[10] = protein 23.75 μM, compound 250 μM
[11] = protein 47.5 μM, compound 10 μM
[12] = protein 47.5 μM, compound 100 μM
[13] = protein 47.5 μM, compound 250 μM

For Fc1ccc(C(c2ccc(F)cc2)N2CCN(C/C=C/c3ccccc3)CC2)cc1 [Flunarizine], the “spectral intensity of the compound in the SEC spin column filtrate (protein fraction)” value (“spectral intensity … (protein fraction)” below) [1, 3] was 188851, the “spectral intensity … (protein fraction)” value [1, 4] was 200579 and the “spectral intensity … (protein fraction)” value [1, 5] was 198757. For the same compound, the “spectral intensity … (protein fraction)” value [1, 6] was 253795, the “spectral intensity … (protein fraction)” value [1, 7] was 501950 and the “spectral intensity … (protein fraction)” value [1, 8] was 137693. The “spectral intensity … (protein fraction)” value [1, 9] was 181386, the “spectral intensity … (protein fraction)” value [1, 10] was 308575 and the “spectral intensity … (protein fraction)” value ([1]; protein 47.5 μM, compound 1 μM) was 58869. For the same compound, the “spectral intensity … (protein fraction)” value [1, 11] was 178128, the “spectral intensity … (protein fraction)” value [1, 12] was 2683794 and the “spectral intensity … (protein fraction)” value [1, 13] was 9317332.

For Dihydroergotoxine mesylate, the “spectral intensity … (protein fraction)” value ([2]; measured mass range m/z 564.1-565.1, protein 0 μM (protein-free reference), compound 1 μM) was 25150786, the “spectral intensity … (protein fraction)” value ([2]; measured mass range m/z 564.1-565.1, protein 0 μM (protein-free reference), compound 10 μM) was 29311635 and the “spectral intensity … (protein fraction)” value ([2]; measured mass range m/z 564.1-565.1, protein 0 μM (protein-free reference), compound 100 μM) was 76261189. The “spectral intensity … (protein fraction)” value ([2]; measured mass range m/z 564.1-565.1, protein 0 μM (protein-free reference), compound 250 μM) was 326128137, the “spectral intensity … (protein fraction)” value ([2]; measured mass range m/z 564.1-565.1, protein 23.75 μM, compound 1 μM) was 19680823 and the “spectral intensity … (protein fraction)” value ([2]; measured mass range m/z 564.1-565.1, protein 23.75 μM, compound 10 μM) was 36914079. For the same compound, the “spectral intensity … (protein fraction)” value ([2]; measured mass range m/z 564.1-565.1, protein 23.75 μM, compound 100 μM) was 177369018, the “spectral intensity … (protein fraction)” value ([2]; measured mass range m/z 564.1-565.1, protein 23.75 μM, compound 250 μM) was 232715490 and the “spectral intensity … (protein fraction)” value ([2]; measured mass range m/z 564.1-565.1, protein 47.5 μM, compound 1 μM) was 16556794. The “spectral intensity … (protein fraction)” value ([2]; measured mass range m/z 564.1-565.1, protein 47.5 μM, compound 10 μM) was 45033425, the “spectral intensity … (protein fraction)” value ([2]; measured mass range m/z 564.1-565.1, protein 47.5 μM, compound 100 μM) was 221983211 and the “spectral intensity … (protein fraction)” value ([2]; measured mass range m/z 564.1-565.1, protein 47.5 μM, compound 250 μM) was 530510575. For the same compound, the “spectral intensity … (protein fraction)” value ([2]; measured mass range m/z 577.9-578.9, protein 0 μM (protein-free reference), compound 1 μM) was 17036968, the “spectral intensity … (protein fraction)” value ([2]; measured mass range m/z 577.9-578.9, protein 0 μM (protein-free reference), compound 10 μM) was 25343556 and the “spectral intensity … (protein fraction)” value ([2]; measured mass range m/z 577.9-578.9, protein 0 μM (protein-free reference), compound 100 μM) was 62894601. The “spectral intensity … (protein fraction)” value ([2]; measured mass range m/z 577.9-578.9, protein 0 μM (protein-free reference), compound 250 μM) was 234871658, the “spectral intensity … (protein fraction)” value ([2]; measured mass range m/z 577.9-578.9, protein 23.75 μM, compound 1 μM) was 25890358 and the “spectral intensity … (protein fraction)” value ([2]; measured mass range m/z 577.9-578.9, protein 23.75 μM, compound 100 μM) was 421344902. The “spectral intensity … (protein fraction)” value ([2]; measured mass range m/z 577.9-578.9, protein 23.75 μM, compound 250 μM) was 408003600, the “spectral intensity … (protein fraction)” value ([2]; measured mass range m/z 577.9-578.9, protein 47.5 μM, compound 1 μM) was 31988946 and the “spectral intensity … (protein fraction)” value ([2]; measured mass range m/z 577.9-578.9, protein 47.5 μM, compound 10 μM) was 207450982. The “spectral intensity … (protein fraction)” value ([2]; measured mass range m/z 577.9-578.9, protein 47.5 μM, compound 100 μM) was 908698063, the “spectral intensity … (protein fraction)” value ([2]; measured mass range m/z 577.9-578.9, protein 47.5 μM, compound 250 μM) was 1265975868 and the “spectral intensity … (protein fraction)” value ([2]; measured mass range m/z 611.7-612.7, protein 0 μM (protein-free reference), compound 1 μM) was 18486648. The “spectral intensity … (protein fraction)” value ([2]; measured mass range m/z 611.7-612.7, protein 0 μM (protein-free reference), compound 10 μM) was 24024699, the “spectral intensity … (protein fraction)” value ([2]; measured mass range m/z 611.7-612.7, protein 0 μM (protein-free reference), compound 100 μM) was 30737736 and the “spectral intensity … (protein fraction)” value ([2]; measured mass range m/z 611.7-612.7, protein 0 μM (protein-free reference), compound 250 μM) was 58888872. The “spectral intensity … (protein fraction)” value ([2]; measured mass range m/z 611.7-612.7, protein 23.75 μM, compound 1 μM) was 35126832, the “spectral intensity … (protein fraction)” value ([2]; measured mass range m/z 611.7-612.7, protein 23.75 μM, compound 10 μM) was 106708813 and the “spectral intensity … (protein fraction)” value ([2]; measured mass range m/z 611.7-612.7, protein 23.75 μM, compound 100 μM) was 397014202. For the same compound, the “spectral intensity … (protein fraction)” value ([2]; measured mass range m/z 611.7-612.7, protein 23.75 μM, compound 250 μM) was 267260198, the “spectral intensity … (protein fraction)” value ([2]; measured mass range m/z 611.7-612.7, protein 47.5 μM, compound 1 μM) was 40595551 and the “spectral intensity … (protein fraction)” value ([2]; measured mass range m/z 611.7-612.7, protein 47.5 μM, compound 10 μM) was 194133547. The “spectral intensity … (protein fraction)” value ([2]; measured mass range m/z 611.7-612.7, protein 47.5 μM, compound 100 μM) was 931095764 and the “spectral intensity … (protein fraction)” value ([2]; measured mass range m/z 611.7-612.7, protein 47.5 μM, compound 250 μM) was 1112309560.

With CC(O)(CS(=O)(=O)c1ccc(F)cc1)C(=O)Nc1ccc(C#N)c(C(F)(F)F)c1 (centres unmarked) [Bicaltamide] the “spectral intensity … (protein fraction)” value [2, 3] was 196020, the “spectral intensity … (protein fraction)” value [2, 4] was 269681 and the “spectral intensity … (protein fraction)” value [2, 5] was 3889442. The “spectral intensity … (protein fraction)” value [2, 6] was 1804944, the “spectral intensity … (protein fraction)” value [2, 7] was 264437 and the “spectral intensity … (protein fraction)” value [2, 8] was 914364. The “spectral intensity … (protein fraction)” value [2, 9] was 18349511, the “spectral intensity … (protein fraction)” value [2, 10] was 53664833 and the “spectral intensity … (protein fraction)” value ([2]; protein 47.5 μM, compound 1 μM) was 390946. The “spectral intensity … (protein fraction)” value [2, 11] was 4168309, the “spectral intensity … (protein fraction)” value [2, 12] was 24933110 and the “spectral intensity … (protein fraction)” value [2, 13] was 112816687.

For COC(=O)[C@H]1[C@H]2C[C@@H]3c4[nH]c5cc(OC)ccc5c4CCN3C[C@H]2C[C@@H](OC(=O)/C=C/c2cc(OC)c(OC)c(OC)c2)[C@@H]1OC [Rescinnamine], the “spectral intensity … (protein fraction)” value [2, 3] was 9843174, the “spectral intensity … (protein fraction)” value [2, 4] was 6544896 and the “spectral intensity … (protein fraction)” value [2, 5] was 12903374. The “spectral intensity … (protein fraction)” value [2, 6] was 7315419, the “spectral intensity … (protein fraction)” value [2, 7] was 11269941 and the “spectral intensity … (protein fraction)” value [2, 8] was 21895843. The “spectral intensity … (protein fraction)” value [2, 9] was 215933519, the “spectral intensity … (protein fraction)” value [2, 10] was 288844471 and the “spectral intensity … (protein fraction)” value ([2]; protein 47.5 μM, compound 1 μM) was 17653515. For the same compound, the “spectral intensity … (protein fraction)” value [2, 11] was 40677751, the “spectral intensity … (protein fraction)” value [2, 12] was 675671326 and the “spectral intensity … (protein fraction)” value [2, 13] was 1469409087.
